Assay results published in patent publication US4886826A, “Substituted 2,3,4,9-tetrahydro-1H-carbazole-1-acetic acid derivatives, composition and use” (American Home Products Corporation, priority 1989, dated 1989).
Like-named read-outs stand apart in the source and are kept apart here.

How the values were obtained:
[1] = test system: Freund's complete adjuvant-induced hind paw edema in rats; test: Preventative Adjuvant Edema (Freund's complete adjuvant hind paw edema, acute anti-inflammatory effect); type: in vivo, Male Sprague Dawley rats; settings: 25 mg/kg, p.o.; rat; edema volume day 0 to day 3
Description: This test is a primary screen for anti-inflammatory drugs.
Male Sprague Dawley rats (180-200 g) are used. The animals have free access to water but food is withdrawn 18 hours before testing.
Freund's complete adjuvant is prepared by suspending 5 mg of killed and dried Mycobacterium butyricum (Difco) in 1 mL liquid paraffin. The test compounds are dissolved in distilled water or suspended in 0.5% Tween 80 in distilled water according to their solubility. For primary screening all drugs are administered by gastric gavage at the arbitrary dosage of 25 mg/kg, p.o. in a volume of 0.5 mL/100 g body weight to groups of 10 animals.
The method is essentially that described by Wax et al, J. Pharmacol. Exp. Ther., 192, 166-171 (1975). Groups of rats are injected intradermally in the left hind paw with 0.1 mL of Freund's complete adjuvant. The test compound or vehicle is administered immediately before the adjuvant, 24 hours and 48 hours after the adjuvant (days 0, 1 and 2). The injected hind paw volume is measured before the injection of adjuvant and 24 hours after the last drug administration (day 3) by means of a plethysomometer (Buxco Electronics Inc.). The difference between the hind paw volume on day 0 and day 3 represents the edema volume. Etodolac (25 mg/kg, p.o.) is included as a positive control.
The mean edema volume (expressed as mL±SEM) is calculated for each group and the percentage inhibition of inflammation conferred by the drug is calculated: [formula] where c is the mean edema volume for the untreated controls and t is the mean edema volume for the drug treated group.

[2] = test system: Phenylbenzoquinone-induced writhing in mice; test: Phenylbenzoquinone-induced Writhing in Mice (analgesic activity); type: in vivo, Male Swiss albino mice; settings: 10 mg/kg, p.o.; mouse; writhes in 15 minutes, PBQ i.p. 60 minutes after dosing
Description: A further test used to determine the utility of the compounds of the present invention is designated: Drug Effects on Phenylbenzoquinone-induced Writhing in Mice.
The objective of this test is to determine the ability of test drugs to inhibit the nociceptive (pain) response of mice injected with a chemical irritant. This test is a primary screen for both peripherally and centrally acting analgesic drugs.
Male Swiss albino mice (15-25 g) are used. The animals are fasted for 18 hours prior to use but have free access to water.
Drugs are dissolved or suspended according to their solubility in 0.5% Tween 80 in distilled water. They are administered by gastric gavage in a volume of 5 mL/kg. For primary screening all drugs are administered at the arbitrary dosage of 10 mg/kg, p.o. to a group of 10 mice.
A modification of the method of Siegmund et al., Proc. Soc. Exp. Biol. Med., 95, 729-731 (1957) is used. Groups of 5 mice are dosed with the test compound or vehicle control. Sixty minutes later the animals are injected i.p. with 0.3 mL/20 g body weight of a 0.02% solution of phenylbenzoquinone (PBQ; 2-phenyl-1,4-benzoquinone) and placed in individual observation boxes. The number of writhes or abdominal squirming movements made by each mouse during the following 15 minute period is counted. The experiment is repeated with another group of 5 mice and the mean number of writhes per mouse for a group of 10 mice is calculated.
Drug-treated and vehicle-treated control groups are compared and the percentage protection conferred by the drug is calculated: [formula] where c=mean number of writhes in the control group where t=mean number of writhes in the test drug group

lipoxygenase = test: Rat Polymorphonuclear Leukocyte Assay, lipoxygenase products (leukotriene B4, 5-HETE); type: cell-based; settings: 10 min, 10 μM drug concentration, minus=decrease, plus=increase relative to control (no drug), A23187-stimulated, 3H arachidonic acid
Description: (§1) A test for lipoxygenase and cyclooxygenase inhibitory activity is the Rat Polymorphonuclear Leukocyte Assay. The assay is carried out as follows: glycogen-elicited rat peritoneal cells (10^7 /1.0 mL) are incubated (37° C.)±drug in a shaking water bath for 10 minutes. One micromolar (final concentration) ^3 H arachidonic acid (2.0 μCi) is then added to each sample followed by the immediate addition of 1.0 micromolar A23187* (final concentration). The cells are incubated another 10 minutes and the reaction is stopped by high-speed centrifugation. Supernatants are then analyzed by HPLC using an in-line radioactivity detector. […] Results are qualitatively expressed as a percent change (minus=decrease, plus=increase) relative to the control (no drug). [drawing 20]

cyclooxygenase = test: Rat Polymorphonuclear Leukocyte Assay, cyclooxygenase products (thromboxane B2, prostaglandin E2); type: cell-based; settings: 10 min, 10 μM drug concentration, minus=decrease, plus=increase relative to control (no drug), A23187-stimulated, 3H arachidonic acid
Description: as §1

[3] = read-out: % change 5-HETE (5-hydroxyeicosatetraenoic acid)
[4] = read-out: % change leukotriene B4
[5] = read-out: % change prostaglandin E2
[6] = read-out: % change thromboxane B2

Row | Compound | % Inhibition [1] [%] | % Inhibition [2] [%] | inhibition at 10 µM (lipoxygenase; [3]) [%] | inhibition at 10 µM (lipoxygenase; [4]) [%] | inhibition at 10 µM (cyclooxygenase; [5]) [%] | inhibition at 10 µM (cyclooxygenase; [6]) [%]
1 | C=CC/C=C\C[C@H]1CC[C@@](CC)(CC(=O)O)c2[nH]c3c(C)cccc3c21 (relative stereo) [Example 4, [1, 4 (Z)]-1-Ethyl-4-(2,5-hexadienyl)-2,3,4,9-tetrahydro-8-methyl-1H-carbazole-1-acetic Acid] | 43 | 23 | 94 | 94 | 19 | 88
2 | C=CCCCCC1CCC(CC)(CC(=O)O)c2[nH]c3c(CC)cccc3c21 (single isomer, unassigned) [Example 1, 1,8-Diethyl-4(5-hexenyl)-2,3,4,9-tetrahydro-1H-carbazole-1-acetic Acid] | 0 | 0 | 92 | 93 | 31 | 82
3 | C=CCCCCC1CCC(CC)(CC(=O)O)c2[nH]c3c(C)cccc3c21 (single isomer, unassigned; isomer a) [Example 3, 1-Ethyl-4-(5-hexenyl)-2,3,4,9-tetrahydro-8-methyl-1H-carbazole-1-acetic Acid (Isomer A)] | 19 | 10 | – | – | – | –
4 | C=CCCCCC1CCC(CC)(CC(=O)O)c2[nH]c3c(C)cccc3c21 (single isomer, unassigned; isomer b) [Example 2, 1-Ethyl-4-(5-hexenyl)-2,3,4,9-tetrahydro-8-methyl-1H-carbazole-1-acetic Acid (Isomer B)] | 28 | 0 | 92 | 95 | -22 | 80
